The values that follow are results of earlier work, collected in patent publication US10456335B2, “Oral hygiene compositions and methods” (Carson Laboratories, I.P., Inc., priority 2008, dated 2019).

The conditions of this data set: eight hour time weighted average.

For `OO` [hydrogen peroxide], the “OSHA permissible exposure limit” value is listed as 1 ppm.
